Assay results: ChEMBL document CHEMBL1151673, “Vasculyne, a new cytotoxic acetylenic alcohol from the marine sponge Cribrochalina vasculum” (1996)
Converted amounts (≈) assume the structure as drawn.

Experiments:
[1] = Cytotoxicity against human melanoma cells; format: functional; settings: Melanoma cell
[2] = Cytotoxicity against human colon cancer cells; format: functional; settings: Cancer cell lines
[3] = read-out: LC50 (the source's name)

C#C[C@H](O)/C=C\CCCCCCCCCCCCCCCCCCCCCCCC/C=C/CCCCCCC/C=C/[C@@H](O)C#C [VASCULYNE]
GI50 [1]: 0.2 µg/mL (≈ 0.321 µM) | TGI [1]: 0.7 µg/mL (≈ 1.12 µM) | CC50 [1, 3]: 6.7 µg/mL (≈ 10.8 µM) | GI50 [2]: 0.2 µg/mL (≈ 0.321 µM) | TGI [2]: 0.7 µg/mL (≈ 1.12 µM) | CC50 [2, 3]: 6.7 µg/mL (≈ 10.8 µM)
